The values that follow come from US20260242428A1, “POLYETHYLENIMINE-MODIFIED CRY PROTEINS AND THEIR USE” (priority 2024, published 2026).

In test [1] the target is T1, PEI-modified Cry3Aa (3A-PEI) crystals; Cry3Aa, SEQ ID NO: 4 (Bacillus thuringiensis subsp. tenebrionis, UniProt P0A379, F640R/R158P).
T1 construct: made in house; host or cells: Bacillus thuringiensis B7407G
Kind of test: Cofactor binding capacity of 3A-PEI crystals. The settings on record: 0.25 mM cofactor, 20 μg crystals, 10° C., 30 min. The protocol:
To compare the binding capacity of 3A-PEI crystals with Cry3Aa and Pos3Aa crystals, the same experiment was conducted as the control.
To evaluate whether 3A-PEI crystals could binding to other phosphorylated cofactors, PLP, NAD^+, NADP^+, NADPH, FADH2, CoA, Riboflavin, and TPP (each at a concentration of 0.25 mM) were incubated with 20 μg of 3A-PEI crystals for 30 min under slow rotation at 10° C. Subsequently, the crystals were centrifugated and the amount of bound cofactor within the crystals was quantified.

For test [2], the target named is T2, PEI-modified CadA-Cry1Ab fusion particles (E. coli lysine decarboxylase CadA, NP_418555, fused to Cry1Ab) (Escherichia coli, UniProt P0A9H3).
T2 construct: made in house; host or cells: E. coli BL21(DE3)
Kind of test: PLP binding capacity of PEI-CadA-Cry1Ab particles. As for the experimental part:
For binding analysis, PEI-CadA-Cry1Ab fusion particles (50 μg/mL) were incubated with increasing concentrations of PLP (0-2 mM) for 25 min under gentle rotation at room temperature. After incubation, the particles were centrifuged at 8000 rpm for 10 min, and the unbound PLP in the supernatant was quantified. A calibration curve, generated from PLP standards treated under identical conditions, was used to determine the amount of PLP bound to the particles. To stabilize the absorbance peak of PLP following Schiff base formation with the protein, 1 M HCl was added to the unbound PLP supernatants in a 1:1 (v/v) ratio. After a 5-minute incubation, the absorbance of the unbound PLP was measured at 294 nm using an Eppendorf Bio-Spectrometer (Eppendorf AG. Germany). The PLP concentration was determined using a standard curve generated for various PLP amounts treated with 1M HCL based on the Beer-Lambert law.

For test [3], the target named is T3, CadA-Cry1Ab fusion particles, unmodified (E. coli lysine decarboxylase CadA, NP_418555, fused to Cry1Ab) (Escherichia coli, UniProt P0A9H3).
T3 construct: made in house; host or cells: E. coli BL21(DE3)
The experiment in a line: PLP binding capacity of unmodified CadA-Cry1Ab particles. As to conditions: before PEI modification.

Test [4] has as its system 3A-FDH/3A-LDH particles, unmodified (co-immobilized Cry3Aa-formate dehydrogenase and Cry3Aa-leucine dehydrogenase). Kind of test: NADH binding capacity of 3A-FDH/3A-LDH particles without PEI. As to conditions: absorbance at 340 nm.

As for `Cc1ncc(COP(=O)(O)O)c(C=O)c1O` [PLP, Pyridoxal 5′-phosphate], in test [1], the “binding affinity (binding capacity of cofactor)” value is given as 650±2 μmol/g of support. For the same compound, the PLP binding capacity in test [2] (PLP 0-2 mM, 25 min, room temperature) is recorded as ~ 1300 μmol/g; in test [3], ~ 100 μmol/g. Also, the “PLP binding capacity enhancement by PEI modification” value in test [2] (vs unmodified CadA-Cry1Ab) stood at 13 fold.

On to `Cc1ncc(C[n+]2csc(CCOP(=O)(O)OP(=O)(O)O)c2C)c(N)n1` [TPP], for which the “binding affinity (binding capacity of cofactor)” value in test [1] is recorded as 160±1 μmol/g of support.

`NC(=O)C1=CN([C@@H]2O[C@H](COP(=O)(O)OP(=O)(O)OC[C@H]3O[C@@H](n4cnc5c(N)ncnc54)[C@H](O)[C@@H]3O)[C@@H](O)[C@H]2O)C=CC1` [NADH, nicotinamide adenine dinucleotide]: in test [4], the NADH retained was ~ 4.2±0.3 μmol NADH per g.
